Reference: patent publication US6835371B1 (priority 1997, dated 2004)
Like-named read-outs stand apart in the source and are kept apart here.

Legend:
[1] = target: T1, human dopamine transporter (hDAT) (Homo sapiens, UniProt Q01959); test: cell-based
[2] = target: T2, human norepinephrine transporter (hNET) (Homo sapiens, UniProt P23975); test: cell-based
[3] = target: T2, human norepinephrine transporter (hNET); test: biochemical; type: binding
[4] = target: T1, human dopamine transporter (hDAT); test: biochemical; type: binding
male Swiss-Webster mice [5] = test: animal or person; type: in vivo
male Swiss-Webster mice [6] = test: Cocaine interaction study (locomotor activity); type: in vivo; conditions: 20 mg/kg cocaine IP

T2 sequence (P23975 whole entry): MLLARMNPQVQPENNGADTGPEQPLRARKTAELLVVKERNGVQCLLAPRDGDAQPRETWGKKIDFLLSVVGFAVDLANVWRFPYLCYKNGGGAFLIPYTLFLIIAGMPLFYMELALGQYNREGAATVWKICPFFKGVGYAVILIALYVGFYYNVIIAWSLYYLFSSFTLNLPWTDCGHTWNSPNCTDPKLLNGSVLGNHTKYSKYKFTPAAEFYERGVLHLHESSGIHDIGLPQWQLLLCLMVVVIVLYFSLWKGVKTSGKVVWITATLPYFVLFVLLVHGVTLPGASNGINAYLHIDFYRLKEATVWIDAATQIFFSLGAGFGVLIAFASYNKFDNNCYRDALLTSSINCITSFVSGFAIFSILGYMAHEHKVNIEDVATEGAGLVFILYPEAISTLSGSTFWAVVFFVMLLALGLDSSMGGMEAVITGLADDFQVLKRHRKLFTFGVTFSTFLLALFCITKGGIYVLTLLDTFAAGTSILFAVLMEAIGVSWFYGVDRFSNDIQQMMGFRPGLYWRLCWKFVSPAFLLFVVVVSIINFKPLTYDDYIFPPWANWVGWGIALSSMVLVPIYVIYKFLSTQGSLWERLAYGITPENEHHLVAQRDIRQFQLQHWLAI
T1 sequence (Q01959 whole entry): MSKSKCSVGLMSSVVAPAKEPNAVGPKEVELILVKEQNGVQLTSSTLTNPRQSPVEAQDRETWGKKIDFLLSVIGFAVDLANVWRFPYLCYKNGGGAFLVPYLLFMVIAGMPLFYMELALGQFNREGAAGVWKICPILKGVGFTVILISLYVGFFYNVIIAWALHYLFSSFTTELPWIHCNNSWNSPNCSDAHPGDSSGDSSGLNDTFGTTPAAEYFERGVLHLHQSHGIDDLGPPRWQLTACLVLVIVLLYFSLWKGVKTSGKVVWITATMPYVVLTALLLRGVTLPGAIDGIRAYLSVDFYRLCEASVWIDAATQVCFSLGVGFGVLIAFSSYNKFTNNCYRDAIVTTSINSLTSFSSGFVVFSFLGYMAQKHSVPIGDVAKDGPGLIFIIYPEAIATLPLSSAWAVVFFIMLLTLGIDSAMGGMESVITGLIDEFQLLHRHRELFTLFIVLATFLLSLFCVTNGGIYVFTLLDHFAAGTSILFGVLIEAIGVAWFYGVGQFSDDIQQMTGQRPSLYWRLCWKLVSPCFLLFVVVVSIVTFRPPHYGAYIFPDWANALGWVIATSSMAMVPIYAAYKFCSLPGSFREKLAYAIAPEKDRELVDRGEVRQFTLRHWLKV

Fc1ccc(C(OCCCCN2CCN(c3cccc(C(F)(F)F)c3)CC2)c2ccc(F)cc2)cc1 [Compound 31532]
Discrimination Ratio DAT Binding/Reuptake [1]: 11.7
Discrimination ratio uptake/binding (DA) [1]: 11.7
IC50 [1]: 380 nM
Ki [1]: 380 ± 130 nM
Ki [2]: 310 ± 100 nM
IC50 ([2]; [3H]NE Uptake IC50): 310 nM
IC50 ([2]; read-out: [3H]NE Uptake IC50): 310 nM
Hill coefficient [3]: −0.80 ± 0.03
Ki ([3]; [125I]RTI-55 binding Ki, NET): 222 nM
Ki ([3]; read-out: [125I]RTI-55 binding Ki, NET): 222 nM
Binding discrimination ratio NET/DAT [4]: 6.8
Binding discrimination ratio SERT/DAT [4]: 6.8
Hill coefficient [4]: −0.87 ± 0.05
Ki ([4]; [125I]RTI-55 binding Ki, DAT): 32.5 nM
Ki ([4]; read-out: [125I]RTI-55 binding Ki, DAT): 32.5 nM
ID50 (dose producing ½ maximal depressant activity) (male Swiss-Webster mice [5]; IP, 20 min pretreatment, 0-30 min, descending portion 10 to 100 mg/kg): 112.95 mg/kg
Doses with significant differences against the vehicle group (p<0.05) (male Swiss-Webster mice [5]; mouse, in vivo, ip): 100 mg/kg
AD50 (dose attenuating cocaine-induced stimulation by 50%) (male Swiss-Webster mice [6]; IP, 30-min period): 18.35 mg/kg
Doses with significant differences against the cocaine group (p<0.05) (male Swiss-Webster mice [6]; planned comparisons on log10 horizontal activity counts): 100 mg/kg
